The values below come from publication PMC4047093, “Structural Insights into SraP-Mediated Staphylococcus aureus Adhesion to Host Cells” (PLoS Pathogens, 2014).

By Kd is commonly meant the equilibrium constant for the complex coming apart. Read a low Kd as higher affinity. By stoichiometry N is commonly meant a count of units in the complex or per binding partner.

The target in data set [1] is L-lectin module of SraP (Staphylococcus aureus, UniProt Q2FUW1). Description: SPR (Biacore […]), steady state, […] Langmuir fit. The class given is binding. Conditions: 10 mM HEPES pH 7.5, 150 mM NaCl, 0.005% Tween 20, 25 °C; protein immobilised on CM5 chip; Neu5Ac 0.12-10 mM.
L-lectin module of SraP, sequence (Q2FUW1 245-491): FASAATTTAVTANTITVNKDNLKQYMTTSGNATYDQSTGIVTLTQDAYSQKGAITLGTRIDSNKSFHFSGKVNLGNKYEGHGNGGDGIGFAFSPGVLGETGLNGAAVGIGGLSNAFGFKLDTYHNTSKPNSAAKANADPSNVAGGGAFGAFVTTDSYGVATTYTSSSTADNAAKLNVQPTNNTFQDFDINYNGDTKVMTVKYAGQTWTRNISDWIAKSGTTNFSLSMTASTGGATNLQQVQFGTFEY
Data set [2] deals with the molecule itself. The data set can be described thus: SEC; Superdex 75 column, CDHL-1&2 against protein markers of 67, 44, 25, 17 and 13.7 kDa. (In gel filtration, larger molecules generally elute earlier.)

In data set [1], `CC(=O)N[C@H]1[C@H]([C@H](O)[C@H](O)CO)OC(O)(C(=O)O)C[C@@H]1O` (some centres unmarked) [N-acetylneuraminic acid] gave a Kd of 540 µM.

B1: CDHL-1&2 (tandem cadherin-like modules of SraP, Ala576–Asn751) (domain or fragment)
chain: APTVTVGNQTIEVGKTMNPIVLTTTDNGTGTVTNTVTGLPSGLSYDSATNSIIGTPTKIGQSTVTVVSTDQANNKSTTTFTINVVDTTAPTVTPIGDQSSEVYSPISPIKIATQDNSGNAVTNTVTGLPSGLTFDSTNNTISGTPTNIGTSTISIVSTDASGNKTTTTFKYEVTRN
notes: modules CDHL-1 and CDHL-2, residues Ala576–Asn751; Lacks the two Ca-2 coordinating residues Asp573 and Lys575; also called CDHL-1&2 modules; tandem CDHL modules; source: E. coli BL21, purified (Ni-NTA, Superdex 200 or Superdex 75)
B1: in data set [2], the “stoichiometry N” value came out at 2.
